The values that follow come from article PMC3693456 (Bioorganic & medicinal chemistry letters, 2008).

The assay has as its target CB1 receptor (Rattus norvegicus, UniProt P20272). It counts as binding. The following applies: rat brain membranes, PMSF; for CB1 receptor affinity (in words): qualitative statement.

CB1 receptor, sequence (P20272 whole entry): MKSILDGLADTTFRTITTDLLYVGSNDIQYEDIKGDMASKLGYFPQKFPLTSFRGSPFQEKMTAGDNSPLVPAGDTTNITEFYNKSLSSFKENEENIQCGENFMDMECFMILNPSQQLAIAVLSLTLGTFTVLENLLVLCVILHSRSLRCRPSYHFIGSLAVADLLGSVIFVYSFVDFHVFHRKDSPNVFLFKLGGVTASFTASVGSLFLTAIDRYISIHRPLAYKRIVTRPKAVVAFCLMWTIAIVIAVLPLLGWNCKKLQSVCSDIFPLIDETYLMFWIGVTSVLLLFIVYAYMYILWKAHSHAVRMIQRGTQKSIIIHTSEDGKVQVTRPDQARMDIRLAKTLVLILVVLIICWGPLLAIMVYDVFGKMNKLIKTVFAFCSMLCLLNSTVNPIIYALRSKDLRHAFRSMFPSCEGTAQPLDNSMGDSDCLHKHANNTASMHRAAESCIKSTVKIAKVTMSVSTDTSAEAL

For the compound `C[C@H](CO)NC(=O)CCC/C=C\C/C=C\C/C=C\C/C=C\CCCCc1ccc(Br)cc1` [7n], the “CB1 receptor affinity (in words)” value is “most potent analog”. With `C[C@H](CO)NC(=O)CCC/C=C\C/C=C\C/C=C\C/C=C\CCCCCc1ccccc1` [7e], under “relative to 7d”, the “fold lower CB1 affinity compared to 7d” value is “over 5 fold”. For `C[C@H](CO)NC(=O)CCC/C=C\C/C=C\C/C=C\C/C=C\CCCCc1ccco1` [7q], the “CB1 receptor affinity (in words)” value is given as “substantially weaker affinity”. Still for that read-out and setting: with `C[C@H](CO)NC(=O)CCC/C=C\C/C=C\C/C=C\C/C=C\CCCCc1cccc2ccccc12` [7f] the entry was “loss of CB1 receptor affinity”.
